BindingDB's records for doi:10.1016/s0968-0896(99)00215-1 (Parke-Davis Pharmaceutical Research, 1999)

target: T1, Dimer of Gag-Pol polyprotein [489-587] (Human immunodeficiency virus 1, UniProt P12497); test: Protease Inhibition Assay; details: not given
T1 construct: 489-587
Procedure: For determination of IC50 values, HIV-1 protease was added to assay buffer containing inhibitor and the substrate (H-His-Lys-Ala-Arg-Val-Leu- (p-NO2) Phe-Glu-Ala-norleucine-Ser-NH2). The Leu- (p-NO2) Phe bond of the substrate was cleaved by the enzyme, and the substrate and products were separated by reversed-phase HPLC. Absorbance was measured at 220 nm, peak areas were determined, and percentage conversion to product was calculated.

Cc1cc(SC2C(=O)CC(CCc3ccccc3)(C(C)C)OC2=O)c(C(C)(C)C)cc1OCCO (stereo not given) [3-{[2-tert-butyl-4-(2-hydroxyethoxy)-5-methylphenyl]sulfanyl}-4-hydroxy-6-(2-phenylethyl)-6-(propan-2-yl)-5,6-dihydro-2H-pyran-2-one] and Cc1cc(SC2C(=O)CC(CCc3ccc(O)cc3)(C(C)C)OC2=O)c(C(C)(C)C)cc1OCCO (stereo not given) [(3-(2-tert-Butyl-4-(2-hydroxy-ethoxy)-5-methyl-phenylsulfanyl)-4-hydroxy-6-[2-(4-hydroxy-phenyl)-ethyl]-6-isopropyl-5,6-dihydro-pyran-2-one] are within 1.5-fold of each other in IC50: 2.6 nM for the first, 2.8 nM for the second.

Going from CCCCC1(CCc2ccc(O)cc2)CC(=O)C(Sc2cc(C)c(OCCO)cc2C(C)(C)C)C(=O)O1 (stereo not given) [6-butyl-3-{[2-tert-butyl-4-(2-hydroxyethoxy)-5-methylphenyl]sulfanyl}-4-hydroxy-6-[2-(4-hydroxyphenyl)ethyl]-5,6-dihydro-2H-pyran-2-one] to Cc1cc(SC2C(=O)CC(CCc3ccc(O)cc3)(C3CC3)OC2=O)c(C(C)(C)C)cc1OCCO (stereo not given) [(3-(2-tert-Butyl-4-(2-hydroxy-ethoxy)-5-methyl-phenylsulfanyl)-6-cyclopropyl-4-hydroxy-6-[2-(4-hydroxy-phenyl)-ethyl]-5,6-dihydro-pyran-2-one], the IC50 falls from 6.4 nM to 3.8 nM (1.7-fold).

Going from Cc1cc(SC2C(=O)CC(CCc3ccc(O)cc3)(C3CCCC3)OC2=O)c(C(C)(C)C)cc1OCCO (stereo not given) [3-{[2-tert-butyl-4-(2-hydroxyethoxy)-5-methylphenyl]sulfanyl}-6-cyclopentyl-4-hydroxy-6-[2-(4-hydroxyphenyl)ethyl]-5,6-dihydro-2H-pyran-2-one] to COCOCCOc1cc(C(C)(C)C)c(SC2C(=O)CC(C)(CCc3ccc(O)cc3)OC2=O)cc1C (stereo not given) [3-({2-tert-butyl-4-[2-(methoxymethoxy)ethoxy]-5-methylphenyl}sulfanyl)-4-hydroxy-6-[2-(4-hydroxyphenyl)ethyl]-6-methyl-5,6-dihydro-2H-pyran-2-one], the IC50 rises from 2.8 nM to 20 nM (7.1-fold).

Work on Cc1ccc(C(C)(C)C)c(SC2C(=O)CC(CCc3ccccc3)(C(C)C)OC2=O)c1 (stereo not given) [3-[(2-tert-butyl-5-methylphenyl)sulfanyl]-4-hydroxy-6-(2-phenylethyl)-6-(propan-2-yl)-5,6-dihydro-2H-pyran-2-one] yielded an IC50 of 1.1 nM.

First: Cc1cc(SC2C(=O)C[C@](CCc3ccc(N)cc3)(C(C)C)OC2=O)c(C(C)(C)C)cc1CO (stereo partly drawn) [(6R)-6-[2-(4-aminophenyl)ethyl]-3-{[2-tert-butyl-4-(hydroxymethyl)-5-methylphenyl]sulfanyl}-4-hydroxy-6-(propan-2-yl)-5,6-dihydro-2H-pyran-2-one]
Second: Cc1cc(SC2C(=O)CC(CCc3ccc(N)cc3)(C(C)C)OC2=O)c(C(C)(C)C)cc1CO (stereo not given) [6-[2-(4-aminophenyl)ethyl]-3-{[2-tert-butyl-4-(hydroxymethyl)-5-methylphenyl]sulfanyl}-4-hydroxy-6-(propan-2-yl)-5,6-dihydro-2H-pyran-2-one]
The Ki of the first is 58-fold higher: 25 nM for the first, 0.43 nM for the second.

Going from Cc1cc(SC2C(=O)C[C@](CCc3ccc(O)cc3)(C(C)C)OC2=O)c(C(C)(C)C)cc1CO (stereo not given in full) [(3-(2-tert-Butyl-4-hydroxymethyl-5-methyl-phenylsulfanyl)-4-hydroxy-6-[2-(4-hydroxypheny)-ethyl]-6-isopropyl-5,6-dihydro-pyran-2-one] to Cc1cc(SC2C(=O)C[C@@](CCc3ccc(N)cc3)(C(C)C)OC2=O)c(C(C)(C)C)cc1CO (stereo partly drawn) [(6S)-6-[2-(4-aminophenyl)ethyl]-3-{[2-tert-butyl-4-(hydroxymethyl)-5-methylphenyl]sulfanyl}-4-hydroxy-6-(propan-2-yl)-5,6-dihydro-2H-pyran-2-one], the Ki falls from 31 nM to 0.11 nM (280-fold).

First: Cc1cc(SC2C(=O)CC(CCc3ccccc3)(C(C)C)OC2=O)c(C(C)(C)C)cc1O (stereo not given)
Second: Cc1cc(SC2C(=O)C[C@@](CCc3ccccc3)(C(C)C)OC2=O)c(C(C)(C)C)cc1CO (stereo partly drawn) [(6S)-3-{[2-tert-butyl-4-(hydroxymethyl)-5-methylphenyl]sulfanyl}-4-hydroxy-6-(2-phenylethyl)-6-(propan-2-yl)-5,6-dihydro-2H-pyran-2-one]
The Ki of the first is 12-fold higher: 1.1 nM for the first, 0.09 nM for the second.

same assay, conditions: pH 6.2; 37 °C

Going from Cc1cc(SC2C(=O)CC(CCc3ccc(O)cc3)(C3CC3)OC2=O)c(C(C)(C)C)cc1CO (stereo not given) [(3-(2-tert-Butyl-4-hydroxymethyl-5-methyl-phenylsulfanyl)-6-cyclopropyl-4-hydroxy-6-[2-(4-hydroxy-phenyl)-ethyl]-5,6-dihydro-pyran-2-one] to Cc1cc(SC2C(=O)CC(CCc3ccc(O)cc3)(C3CCCC3)OC2=O)c(C(C)(C)C)cc1CO (stereo not given) [3-{[2-tert-butyl-4-(hydroxymethyl)-5-methylphenyl]sulfanyl}-6-cyclopentyl-4-hydroxy-6-[2-(4-hydroxyphenyl)ethyl]-5,6-dihydro-2H-pyran-2-one], the IC50 rises from 1 nM to 3.1 nM (3.1-fold).

Compared with Cc1ccc(C(C)(C)C)c(SC2C(=O)CC(CCc3ccc(O)cc3)(C(C)C)OC2=O)c1 (stereo not given) [(3-(2-tert-Butyl-5-methyl-phenylsulfanyl)-4-hydroxy-6-[2-(4-hydroxy-phenyl)-ethyl]-6-isopropyl-5,6-dihydro-pyran-2-one], CCCC1(CCc2ccc(O)cc2)CC(=O)C(Sc2cc(C)ccc2C(C)(C)C)C(=O)O1 (stereo not given) [3-[(2-tert-butyl-5-methylphenyl)sulfanyl]-4-hydroxy-6-[2-(4-hydroxyphenyl)ethyl]-6-propyl-5,6-dihydro-2H-pyran-2-one] is 4.1-fold higher in IC50: 4.6 nM for the first, 19 nM for the second.

Compared with Cc1ccc(C(C)(C)C)c(SC2C(=O)CC(CCc3ccc(O)cc3)(C3CCCC3)OC2=O)c1 (stereo not given) [(3-(2-tert-Butyl-5-methyl-phenylsulfanyl)-4-hydroxy-6-[2-(4-hydroxy-phenyl)-ethyl]-6-cyclopentyl-5,6-dihydro-pyran-2-one], Cc1ccc(C(C)(C)C)c(SC2C(=O)CC(CCc3ccc(O)cc3)(C3CCCCC3)OC2=O)c1 (stereo not given) [3-[(2-tert-butyl-5-methylphenyl)sulfanyl]-6-cyclohexyl-4-hydroxy-6-[2-(4-hydroxyphenyl)ethyl]-5,6-dihydro-2H-pyran-2-one] is 4.6-fold higher in IC50: 7.2 nM for the first, 33 nM for the second.

CCCCC1(CCc2ccc(O)cc2)CC(=O)C(Sc2cc(C)c(CO)cc2C(C)(C)C)C(=O)O1 (stereo not given) [6-butyl-3-{[2-tert-butyl-4-(hydroxymethyl)-5-methylphenyl]sulfanyl}-4-hydroxy-6-[2-(4-hydroxyphenyl)ethyl]-5,6-dihydro-2H-pyran-2-one] and CCCCCC1(CCc2ccc(O)cc2)CC(=O)C(Sc2cc(C)c(CO)cc2C(C)(C)C)C(=O)O1 (stereo not given) [3-{[2-tert-butyl-4-(hydroxymethyl)-5-methylphenyl]sulfanyl}-4-hydroxy-6-[2-(4-hydroxyphenyl)ethyl]-6-pentyl-5,6-dihydro-2H-pyran-2-one] are within 1.5-fold of each other in IC50: 4.1 nM for the first, 5.9 nM for the second.

First: Cc1cc(SC2C(=O)CC(CCc3ccc(O)cc3)(C3CCCCC3)OC2=O)c(C(C)(C)C)cc1CO (stereo not given) [PD 178390 Analog 21]
Second: Cc1ccc(C(C)(C)C)c(SC2C(=O)CC(CCc3ccc(O)cc3)(C3CC3)OC2=O)c1 (stereo not given) [(3-(2-tert-Butyl-5-methyl-phenylsulfanyl)-6-cyclopropyl-4-hydroxy-6-[2-(4-hydroxy-phenyl)-ethyl]-5,6-dihydro-pyran-2-one]
The IC50 of the first is 3.2-fold lower: 2.5 nM for the first, 8 nM for the second. The first is the more potent here.

CCCC1(CCc2ccc(O)cc2)CC(=O)C(Sc2cc(C)c(CO)cc2C(C)(C)C)C(=O)O1 (stereo not given) [3-{[2-tert-butyl-4-(hydroxymethyl)-5-methylphenyl]sulfanyl}-4-hydroxy-6-[2-(4-hydroxyphenyl)ethyl]-6-propyl-5,6-dihydro-2H-pyran-2-one] gave an IC50 of 2.6 nM.

Cc1cc(SC2C(=O)CC(CCc3ccc(O)cc3)(C(C)C)OC2=O)c(C(C)(C)C)cc1O (stereo not given) [PD 178390 Analog 23] gave a Ki of 0.03 nM.
